pEC50: −log10 of the molar value.
Target: T1, LXRβ (Homo sapiens, UniProt P55055)
T1 construct: Co-transfection expression plasmids, comprising full-length LXRα (pCMX-h LXRα or LXRβ (pCMX-hLXRβ)); expressed in transfected cells; host or cells: CV-1 African green monkey kidney cells, transient transfection with pCMX-hLXRβ
T1 sequence (P55055 1-460): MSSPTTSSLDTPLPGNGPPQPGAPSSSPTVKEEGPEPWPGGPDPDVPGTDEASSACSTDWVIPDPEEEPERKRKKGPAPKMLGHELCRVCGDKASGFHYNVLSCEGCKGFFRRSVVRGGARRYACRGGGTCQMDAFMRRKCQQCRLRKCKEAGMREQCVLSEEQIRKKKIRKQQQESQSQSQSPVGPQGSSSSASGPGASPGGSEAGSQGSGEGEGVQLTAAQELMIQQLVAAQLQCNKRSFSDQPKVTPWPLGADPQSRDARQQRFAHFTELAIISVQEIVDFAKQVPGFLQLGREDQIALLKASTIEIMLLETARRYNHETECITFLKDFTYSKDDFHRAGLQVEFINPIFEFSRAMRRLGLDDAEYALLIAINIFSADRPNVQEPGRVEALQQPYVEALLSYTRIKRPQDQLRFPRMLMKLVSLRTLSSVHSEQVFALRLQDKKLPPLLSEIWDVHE
T1 sequence (P19793 1-462 partner): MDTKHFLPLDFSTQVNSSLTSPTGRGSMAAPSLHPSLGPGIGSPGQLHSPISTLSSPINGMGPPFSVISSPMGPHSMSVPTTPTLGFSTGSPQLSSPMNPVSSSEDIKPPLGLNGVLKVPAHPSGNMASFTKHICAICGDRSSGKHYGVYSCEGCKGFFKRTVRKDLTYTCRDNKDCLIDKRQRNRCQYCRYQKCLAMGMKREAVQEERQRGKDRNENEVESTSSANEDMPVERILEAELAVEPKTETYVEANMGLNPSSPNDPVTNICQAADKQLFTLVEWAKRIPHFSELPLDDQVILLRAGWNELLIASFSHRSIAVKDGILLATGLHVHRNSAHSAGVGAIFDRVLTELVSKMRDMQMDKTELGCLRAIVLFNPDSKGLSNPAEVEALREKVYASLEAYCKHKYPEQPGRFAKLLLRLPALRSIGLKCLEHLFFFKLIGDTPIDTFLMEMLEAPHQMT
Test: LXR/LXRE co-transfection assay (luciferase reporter) in CV-1 cells, LXRβ
Format: cell-based
Conditions: for pEC50: CV-1 cells transfected with pCMX-hLXRβ and LXREx1-Tk-Luciferase, 20 hours incubation, read-out: LXRbeta agonism EC50; for Emax: CV-1 cells, relative to maximum response of high control N-(3-((4-fluorophenyl)-(naphthalene-2-sulfonyl)amino)propyl)-2,2-dimethylpropionamide, read-out: LXRbeta % EFFICACY
From the text: To measure the ability of compounds to activate or inhibit the transcriptional activity of LXR in a cell based assay, the co-transfection assay was used. It has been shown that LXR functions as a heterodimer with RXR. For the co-transfection assay, expression plasmids for LXRα and LXRβ are introduced separately via transient transfection into mammalian cells along with a luciferase reporter plasmid that contains one copy of a DNA sequence that is bound by LXR-RXR heterodimers (LXRE; Willy, P. et. al. 1995). LXRs heterodimerize with the endogenous RXR. Treatment of transfected cells with an LXR agonist increases the transcriptional activity of LXR, which is measured by an increase in luciferase activity.
Co-transfection expression plasmids, comprising full-length LXRα (pCMX-h LXRα or LXRβ (pCMX-hLXRβ), reporter plasmid (LXREx1-Tk-Luciferase), and control (pCMX-Galactosidase expression vector) (Willey et al. Genes & Development 9 1033-1045 (1995)).
CV-1 cells were prepared 24 hours prior to the experiment by plating them into T-175 flasks or 500 cm^2 dishes in order to achieve 70-80% confluency on the day of the transfection. The number of cells to be transfected was determined by the number of plates to be screened. Each well of a 384 well plate requires 1.5×10^4 cells. DNA Transfection Reagent was prepared by mixing the required plasmid DNAs with a cationic lipid transfection reagent Transit 2020 (Mirus Bio) for CV1 by following the instructions provided with the reagents. Optimal DNA amounts were determined empirically per cell line and size of vessel to be transfected. For each T175 cm^2 flask a total of 44.4 ug for CV1 of DNA, 133 ul Transit2020 and 4.5 ml DMEM for CV1 was mixed and added. Cells were then incubated at least 5 hours at 37° C. to prepare screening cells.
Assay plates were prepared by dispensing 5 μL of compound per well of a 384 well plate to achieve final compound concentration of 10 μM and no more than 0.5% DMSO. Media was removed from the screening cells, the cells trypsinized, harvested cells by centrifugation, counted, and plated at a density of approximately 1.5×10^4 cells in the 384 well assay plate prepared above in a volume of about 95 uL. Assay plates containing both compounds and screening cells (100 μL in total volume) were incubated for 20 hours at 37° C.
After incubation with compounds, media was removed from the cells and luciferase assay reagent (30 μL/well) added. After ˜2 minutes at ambient temperature, the assay plates were read on a luminometer (PE Biosystems Northstar reader with on-board injectors, or Envision (Perkin Elmer) or equivalent).
The LXR/LXRE co-transfection assay can be used to establish the EC50/IC50 values for potency and percent activity or inhibition for efficacy. Efficacy defines the activity of a compound relative to a high control ((N-(3-((4-fluorophenyl)-(naphthalene-2-sulfonyl)amino)propyl)-2,2-dimethylpropionamide)) or a low control (DMSO/vehicle). The dose response curves are generated from a 10 point curve with concentrations differing by ½ LOG units. Each point represents the average of 4 wells of data from a 384 well plate.
The data from this assay is fitted to the following equation, from which the EC50 value may be solved: Y=Bottom+(Top−Bottom)/(1+10^((log EC50-X)*HillSlope)).
The EC50/IC50 is therefore defined as the concentration at which an agonist or antagonist elicits a response that is halfway between the Top (maximum) and Bottom (baseline) values. The EC50/IC50 values represented are the averages of at least 2 and normally 3 independent experiments. The determination of the relative efficacy or % control for an agonist is by comparison to the maximum response achieved by ((N-(3-((4-fluorophenyl)-(naphthalene-2-sulfonyl)-amino)propyl)-2,2-dimethylpropionamide) that is measured individually in each dose response experiment.
Table 1 lists LXRβ EC50 values and % efficacy measurements in the cotransfection assay for examples of this invention.

Structure (SMILES)	pEC50	Emax [%]
Cn1nc(C(F)(F)F)cc1-c1ccc(-c2cccc(S(C)(=O)=O)c2)cc1-n1nncc1-c1ccc(OC(F)(F)F)cc1 [Example 14, 1-{3′-(methylsulfonyl)-4-[1-methyl-3-(trifluoromethyl)-1H-pyrazol-5-yl]biphenyl-3-yl}-5-{4-[(trifluoromethyl)oxy]phenyl}-1H-1,2,3-triazole]	7.49	99
Cn1nc(C(F)(F)F)cc1-c1ccc(-c2cc(F)c(CO)c(S(C)(=O)=O)c2)cc1-n1nncc1-c1ccc(OC(F)(F)F)cc1 [Example 15, (3-fluoro-4′-(1-methyl-3-(trifluoromethyl)-1H-pyrazol-5-yl)-5-(methylsulfonyl)-3′-(5-(4-(trifluoromethoxy)phenyl)-1H-1,2,3-triazol-1-yl)biphenyl-4-yl)methanol]	7.96	95
COCC(F)(F)c1cc(-c2ccc(-c3cccc(S(C)(=O)=O)c3)cc2-n2nncc2-c2ccc(OC(F)(F)F)cc2)n(C)n1 [Example 16, 1-[4-{3-[1,1-difluoro-2-(methyloxy)ethyl]-1-methyl-1H-pyrazol-5-yl}-3′-(methylsulfonyl)biphenyl-3-yl]-5-{4-[(trifluoromethyl)oxy]phenyl}-1H-1,2,3-triazole]	6.79	89
COCC(F)(F)c1cc(-c2ccc(-c3cc(F)c(CO)c(S(C)(=O)=O)c3)cc2-n2nncc2-c2ccc(OC(F)(F)F)cc2)n(C)n1 [Example 17, [4′-{3-[1,1-difluoro-2-(methyloxy)ethyl]-1-methyl-1H-pyrazol-5-yl}-3-fluoro-5-(methylsulfonyl)-3′-(5-{4-[(trifluoromethyl)oxy]phenyl}-1H-1,2,3-triazol-1-yl)biphenyl-4-yl]methanol]	7.21	96
Cn1nc(C(C)(F)F)cc1-c1ccc(-c2cccc(S(C)(=O)=O)c2)cc1-n1nncc1-c1ccc(OC(F)(F)F)cc1 [Example 18, 1-{4-[3-(1,1-difluoroethyl)-1-methyl-1H-pyrazol-5-yl]-3′-(methylsulfonyl)biphenyl-3-yl}-5-{4-[(trifluoromethyl)oxy]phenyl}-1H-1,2,3-triazole]	7.24	87
CN(C)S(=O)(=O)c1cccc(-c2ccc(-c3cc(C(C)(F)F)nn3C)c(-n3nncc3-c3ccc(OC(F)(F)F)cc3)c2)c1 [Example 19, 4′-[3-(1,1-difluoroethyl)-1-methyl-1H-pyrazol-5-yl]-N,N-dimethyl-3′-(5-{4-[(trifluoromethyl)oxy]phenyl}-1H-1,2,3-triazol-1-yl)biphenyl-3-sulfonamide]	7.04	79
CNS(=O)(=O)c1cccc(-c2ccc(-c3cc(C(C)(F)F)nn3C)c(-n3nncc3-c3ccc(OC(F)(F)F)cc3)c2)c1 [Example 20, 4′-[3-(1,1-difluoroethyl)-1-methyl-1H-pyrazol-5-yl]-N-methyl-3′-(5-{4-[(trifluoromethyl)oxy]phenyl}-1H-1,2,3-triazol-1-yl)biphenyl-3-sulfonamide]	7.42	86
Cn1nc(C(C)(F)F)cc1-c1ccc(-c2cc(F)c(CO)c(S(C)(=O)=O)c2)cc1-n1nncc1-c1ccc(OC(F)(F)F)cc1 [Example 21, {4′-[3-(1,1-difluoroethyl)-1-methyl-1H-pyrazol-5-yl]-3-fluoro-5-(methylsulfonyl)-3′-(5-{4-[(trifluoromethyl)oxy]phenyl}-1H-1,2,3-triazol-1-yl)biphenyl-4-yl}methanol]	7.66	82
Cn1nc(C(F)F)cc1-c1ccc(-c2cccc(S(C)(=O)=O)c2)cc1-n1nncc1-c1ccc(OC(F)(F)F)cc1 [Example 22, 1-{4-[3-(difluoromethyl)-1-methyl-1H-pyrazol-5-yl]-3′-(methylsulfonyl)biphenyl-3-yl}-5-{4-[(trifluoromethyl)oxy]phenyl}-1H-1,2,3-triazole]	6.90	80
Cn1nc(C(F)F)cc1-c1ccc(-c2cc(F)c(CO)c(S(C)(=O)=O)c2)cc1-n1nncc1-c1ccc(OC(F)(F)F)cc1 [Example 23, {4′-[3-(difluoromethyl)-1-methyl-1H-pyrazol-5-yl]-3-fluoro-5-(methylsulfonyl)-3′-(5-{4-[(trifluoromethyl)oxy]phenyl}-1H-1,2,3-triazol-1-yl)biphenyl-4-yl}methanol]	7.38	79
Cn1nc(C(F)(F)CO)cc1-c1ccc(-c2cccc(S(C)(=O)=O)c2)cc1-n1nncc1-c1ccc(Cl)cc1 [Example 24, 2-(5-(3-(5-(4-chlorophenyl)-1H-1,2,3-triazol-1-yl)-3′-(methylsulfonyl)-[1,1′-biphenyl]-4-yl)-1-methyl-1H-pyrazol-3-yl)-2,2-difluoroethanol]	5.86	48
Cn1nc(C(F)(F)CO)cc1-c1ccc(-c2cccc(S(C)(=O)=O)c2)cc1-n1nncc1-c1ccc(OC(F)(F)F)cc1 [Example 25, 2,2-difluoro-2-(1-methyl-5-(3′-(methylsulfonyl)-3-(5-(4-(trifluoromethoxy)phenyl)-1H-1,2,3-triazol-1-yl)-[1,1′-biphenyl]-4-yl)-1H-pyrazol-3-yl)ethanol]	5.99	78
Cn1nc(C(F)(F)CO)cc1-c1ccc(-c2cc(F)c(CO)c(S(C)(=O)=O)c2)cc1-n1nncc1-c1ccc(OC(F)(F)F)cc1 [Example 26, 2,2-difluoro-2-(5-(3′-fluoro-4′-(hydroxymethyl)-5′-(methylsulfonyl)-3-(5-(4-(trifluoromethoxy)phenyl)-1H-1,2,3-triazol-1-yl)-[1,1′-biphenyl]-4-yl)-1-methyl-1H-pyrazol-3-yl)ethanol]	6.04	81

Reference: patent publication US9751869B2, “LXR modulators” (BRISTOL-MYERS SQUIBB COMPANY, priority 2013, dated 2017)
